Measurements: patent US20230405002A1, “COMBINATIONS OF DIACYLGLYCEROL ACYLTRANSFERASE 2 INHIBITORS AND ACETYL-COA CARBOXYLASE INHIBITOR” (Pfizer Inc., priority 2020, published 2023)

What was measured:
SREBP-1 = assay: Compound A / Compound D study in Western diet fed rats: nuclear SREBP-1 localization (Western blot); format: in vivo, rat; settings: high dose; relative to vehicle treated Western diet fed rats
Protocol: (§1) A randomized, vehicle-controlled, 8-parallel arm study was conducted in male Sprague-Dawley rats (Charles River (Boston, MA)) to obtain circulating and hepatic TG levels. Standard laboratory conditions were used to house 96 rats (˜200 g); they were double housed and kept under 12:12-hour reverse light-dark schedule (lights off at 8:00 AM). Rats were randomized into chow or Western diet groups and dose groups upon arrival and were given a 14-day lead-in period on either standard rat chow or Western diet prior to the start of the study. Standard Laboratory Rodent chow diet, 5053, was from LabDiet (PMI, St Louis, Missouri). Western Diet, D12079Bi, was from Research Diets (New Brunswick, NJ).
Nuclear and Membrane fractions were prepared by ultracentrifugation using standard methods from a portion of the pulverized liver samples, that were pooled per treatment group. Samples from the nuclear extract and the membrane fractions were analyzed by Western blotting for SREBP1. Western blots for Calnexin was used as a marker for the membrane fraction, actin as a marker for total sample loading, and Histone 2B as a marker for the nuclear fraction. Nuclear SREBP1 levels were quantified using relative units and normalized to Histone 2B to control for sample loss during the nuclear fractionation and gel loading.

[1] = tested on: CDAHFD fed male Wistar-Han rats; assay: CDAHFD rat study: liver stiffness by shearwave elastography; format: in vivo; settings: Compound A 5 mg/kg, Compound D 30 mg/kg twice daily, 6 weeks
From the text: (§2) Standard laboratory conditions were used to house 60 rats (˜200 g); they were double housed and kept under 12:12-hour reverse light-dark schedule (lights off at 8:00 AM). Rats were fed choline deficient and high fat diet (CDAHFD) beginning 6-weeks prior to initiation of the study. […] Animals (n=12) remaining on normal chow throughout the study and administered twice-daily vehicle were used as a control group. Blood samples were collected prior to starting compound administration and 3- and 6-week post compound administration for the assessment of circulating markers. Shearwave elastography (Aixplorer Ultimate imager, Supersoinc imagine) measurements were made at Week −3, Week 0 (prior to 1st dose), Week 3 and Week 6 to assess inflammation and fibrosis progression over time. Histology was assessed following 6-weeks of drug administration which corresponded to 12 weeks on the CDAHFD. Results are provided as an average of animals per each dosing group.

[2] = tested on: CDAHFD fed male Wistar-Han rats; assay: CDAHFD rat study: liver histology (αSMA IHC, Picrosirius red, Iba1 staining); format: in vivo; settings: Compound A 5 mg/kg, Compound D 30 mg/kg twice daily, 6 weeks
From the text: as §2
Following the 12-weeks on CDAHFD, the animals were sacrificed by CO2 asphyxiation. The right lateral, medial and left lateral lobes of the liver were harvested. Sections were taken from the left lateral, right medial and right lateral lobes and fixed in formalin and processed to paraffin blocks per animal. One section of left lateral lobe per animal was cryopreserved in optimal cutting temperature (OCT) compound. The remainder of the liver from each animal was frozen and rapidly pulverized on an aluminum block cooled in liquid N2, ensuring the tissue remained frozen throughout the pulverization. The pulverized tissue was transferred and stored at −80° C. until analysis. A portion of the pulverized liver sample from each animal was processed and analyzed for gene expression markers of fibrogenesis. Rat taqman probes against αSMA and COL1A1 were all assessed using Actb as housekeeping gene on qPCR.
The following endpoints were evaluated by qualitative histologic evaluation by a board certified veterinary pathologist and quantitative histomorphometry: hepatic stellate cell activation and differentiation into myofibroblasts by αSMA immunohistochemistry (IHC); Collagen as a correlate of fibrosis by Picrosirius Red stain. Images were analyzed using Visiopharm software. Visiopharm applications with threshold parameters were applied uniformly to identify tissue sections and to quantify the targets on each IHC (DAB (3,3′-diaminobenzidine) positive) or histochemically stained slides as percent area: stain area of interest/Total tissue ROI−whitespace)×100%. Non-parametric statistics were used to analyze data from this study. Group values were reported as mean+/− the standard error of the mean.

[3] = tested on: Western diet fed Sprague Dawley rats; assay: Compound A / Compound D study in Western diet fed rats: fed and fasted plasma triglycerides; format: in vivo, rat; settings: for reduction of plasma TG in the fed state / increase in plasma TG in the fed state: relative to vehicle-administered Western diet fed rats; for reduction of fasted plasma TG / increase in fasted plasma TG: relative to vehicle administered Western diet fed rats
Protocol: as §1
For these studies, vehicle was prepared to make a 0.5% (wt/volume) of methyl cellulose (MC, Sigma Aldrich, 274429) in deionized water.
Fed plasma analytes: Blood for determining fed plasma TG concentrations was collected 2 hours post dose (2 hours into the dark cycle) via lateral tail vein, transferred to BD Microtainer tubes coated with dipotassium ethylenediaminetetraacetic acid (K2EDTA) (PN365974), and centrifuged at 4° C. The resulting plasma samples were then analyzed on a Siemens Chemistry XPT clinical analyzer (Malven, PA) using Siemens triglycerides_2 assay reagents (ref 10335892).
Fasted plasma analytes: Blood for determining fasted plasma TG was collected after a 4 hour fast, 2 hours post-dose (2 hours into the dark cycle) via lateral tail vein, transferred to BD Microtainer tubes coated with K2EDTA (PN365974), and centrifuged at 4° C. The resulting plasma samples were then analyzed on a Siemens Chemistry XPT clinical analyzer (Malven, PA) using Siemens triglycerides 2 assay reagents (ref 10335892).

[4] = high dose (Compound A 10 mg/kg QD)
[5] = low dose (Compound A 1 mg/kg QD)

Row | SMILES | nuclear SREBP-1 localization (SREBP-1) | liver stiffness (shearwave elastography) [1] | reduction of Iba1 staining [2] | reduction of Picosrius red (PSR) staining [2] [%] | reduction of αSMA staining [2] [%] | reduction of plasma TG in the fed state ([3]; high dose (Compound A 10 mg/kg QD, Compound D 30 mg/kg BID)) [%] | reduction of fasted plasma TG ([3]; high dose (Compound D 30 mg/kg BID)) [%] | reduction of plasma TG in the fed state ([3]; low dose (Compound A 1 mg/kg QD, Compound D 5 mg/kg BID)) [%] | reduction of fasted plasma TG ([3]; low dose (Compound D 5 mg/kg BID)) [%] | increase in fasted plasma TG [3, 4] [fold] | increase in plasma TG in the fed state [3, 4] [fold] | increase in fasted plasma TG [3, 5] [fold] | increase in plasma TG in the fed state [3, 5] [fold]
1 | CCOc1cccnc1Oc1cncc(-c2ncc(C(=O)N[C@H]3CCOC3)cn2)c1 [Compound D, (S)-2-(5-((3-ethoxypyridin-2-yl)oxy)pyridin-3-yl)-N-(tetrahydrofuran-3-yl)pyrimidine-5-carboxamide] | reduced SREBP-1 nuclear localization | reduced liver stiffness | did not alter Iba1 staining | 20 | 23 | 63 | 35 | 55 | 20 | – | – | – | –
2 | COc1cc(C(=O)N2CCC3(CC2)CC(=O)c2c(cnn2C(C)C)C3)cc(-c2ccc(C(=O)O)cc2)n1 [Compound A, 4-(4-(1-isopropyl-7-oxo-1,4,6,7-tetrahydrospiro[indazole-5,4′-piperidine]-1′-carbonyl)-6-methoxypyridin-2-yl)benzoic acid] | increased nuclear localization of SREBP-1 | reduced liver stiffness | 15% | 26 | 41 | – | – | – | – | 1.7 | 1.3 | 2.4 | 1.7
